Like-named read-outs stand apart in the source and are kept apart here.
Target: hPK-M2 (Homo sapiens, UniProt P14618)
Test: Luminescent pyruvate kinase-luciferase coupled assay (KinaseGlo)
Type: biochemical
Settings: for activation at 57 µM: read-out: hPK, M2 Max. Res.
Experimental: Luminescent Pyruvate Kinase-Luciferase Coupled Assay.
Production of a luminescent signal based on the generation of ATP by pyruvate kinase was determined by using the ATP-dependent enzyme firefly luciferase. Three μL of substrate mix (at r.t.) in assay buffer (50 mM imidazole pH 7.2, 50 mM KCl, 7 mM MgCl2, 0.01% tween 20, 0.05% BSA) was dispensed into Kalypsys white solid bottom 1,536 well microtiter plates using a bottle-valve solenoid-based dispenser (Kalypsys). The final concentrations of substrates in the assay were 0.1 mM ADP and 0.5 mM PEP. […] Microtiter plates were incubated at r.t. for 1 hour and 2 uL of luciferase detection mix (Kinase-Glo, Promega at 4° C. protected from light) was added and luminescence was read with a ViewLux (Perkin Elmer) using a 5 second exposure/plate. Data was normalized for AC50 values to control columns containing uninhibited enzyme (n), and AC100 inhibition (i) according the following equation: Activation (%)=[(c−n)/(n−i)]*100 where c=compound, n=DMSO neutral, i=no enzyme control. […] Monitoring of activation was accomplished using enzyme at 3× the final concentration.

[1] = KinaseGlo, % activation at 57 μM of compound
[2] = luminescent pyruvate kinase-luciferase coupled assay (KinaseGlo), tables, read-out: hPK, M2 AC50
[3] = luciferase-coupled assay, read-out: AC50

Chain of hPK-M2 (P14618 whole entry): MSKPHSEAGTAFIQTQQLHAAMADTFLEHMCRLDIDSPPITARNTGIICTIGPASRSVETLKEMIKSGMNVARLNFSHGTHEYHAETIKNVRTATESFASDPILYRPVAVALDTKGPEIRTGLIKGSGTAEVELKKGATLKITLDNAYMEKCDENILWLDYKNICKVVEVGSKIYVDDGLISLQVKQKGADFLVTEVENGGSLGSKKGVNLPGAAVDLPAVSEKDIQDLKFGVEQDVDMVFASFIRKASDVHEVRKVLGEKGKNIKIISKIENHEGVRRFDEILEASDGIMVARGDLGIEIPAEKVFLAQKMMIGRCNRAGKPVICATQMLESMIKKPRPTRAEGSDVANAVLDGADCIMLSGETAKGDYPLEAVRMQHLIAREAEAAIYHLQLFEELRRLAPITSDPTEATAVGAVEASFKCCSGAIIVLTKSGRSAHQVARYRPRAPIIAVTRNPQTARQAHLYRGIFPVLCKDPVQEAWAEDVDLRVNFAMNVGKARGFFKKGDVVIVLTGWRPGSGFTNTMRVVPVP

| SMILES | activation at 57 µM [1] | AC50 [2] | AC50 [3] | hPK, M2 Max. Res. [1] |
| --- | --- | --- | --- | --- |
| CC(=O)Nc1cc2c(s1)c1cnn(Cc3ccccc3F)c(=O)c1n2C [Compound 81, 2-Acetylamido-4-methyl-6-[(2-fluorophenyl)methyl]-4H-thieno[3,2-b]pyrrole[3,2-d]-pyridazinone] | 58.6 ± 23.5% | – | – | – |
| O=S(=O)(NC1CCN(S(=O)(=O)c2c(F)cccc2F)CC1)c1ccc2c(c1)OCCO2 [Compound 39, N-(1-(2,6-difluorophenylsulfonyl)piperidin-4-yl)-2,3-dihydrobenzo[b][1,4]dioxine-6-sulfonamide] | 101 ± 1.9% | 3690 ± 1260 nM | – | – |
| O=S(=O)(c1ccc2c(c1)OCCO2)N1CCN(S(=O)(=O)c2ccc(F)cc2F)CC1 [Compound 14, 1-(2,4-difluorophenylsulfonyl)-4-(2,3-dihydrobenzo[b][1,4]dioxin-6-ylsulfonyl)piperazine] | 113 ± 6.3% | 124 nM | – | – |
| O=S(=O)(c1ccc2c(c1)OCO2)N1CCN(S(=O)(=O)c2c(F)cccc2F)CC1 [Compound 24, 1-(benzo[d][1,3]dioxol-5-ylsulfonyl)-4-(2,6-difluorophenylsulfonyl)piperazine] | 61 ± 1.2% | 191 nM | – | – |
| Cc1cc2c(s1)c1cnn(Cc3c(F)c(F)cc(F)c3F)c(=O)c1n2C [Compound 117, 2,4-Methyl-6-[(2,3,5,6-tetrafluorophenyl)methyl]-4H-thieno[3,2-b]pyrrole[3,2-d]pyridazinone] | 59.4 ± 6.3% | 345 ± 60 nM | – | – |
| Cc1cc2c(s1)c1cnn(Cc3cccc(F)c3)c(=O)c1n2C [Compound 104] | 91.5 ± 8.4% | 225 ± 100 nM | – | – |
| COc1cc2c(s1)c1cnn(Cc3ccccc3F)c(=O)c1n2C [Compound 71, 2-Methoxy-4-methyl-6-[(2-fluorophenyl)methyl]-4H-thieno[3,2-b]pyrrole[3,2-d]pyridazinone] | – | 86 ± 40 nM | – | – |
| O=S(=O)(c1ccc(F)cc1)N1CCN(S(=O)(=O)c2ccc3c(c2)OCCO3)CC1 [Compound 6, 1-(2,3-dihydrobenzo[b][1,4]dioxin-6-ylsulfonyl)-4-(4-fluorophenylsulfonyl)piperazine] | 99.7 ± 4.2% | 94 nM | – | – |
| O=S(=O)(c1ccc2c(c1)OCCO2)N1CCN(S(=O)(=O)c2ccc3c(c2)OCCO3)CC1 [Compound 2, 1,4-bis(2,3-dihydrobenzo[b][1,4]dioxin-6-ylsulfonyl)piperazine] | 89.7 ± 2.2% | – | 270 nM | – |
| O=S(=O)(NC1CCN(S(=O)(=O)c2ccc3c(c2)OCCO3)CC1)c1c(F)cccc1F [Compound 40, N-(1-(2,3-dihydrobenzo[b][1,4]dioxin-6-ylsulfonyl)piperidin-4-yl)-2,6-difluorobenzenesulfonamide] | 99.6 ± 3.1% | 9000 ± 4500 nM | – | – |
| O=S(=O)(c1ccc2c(c1)OCCO2)N1CCN(S(=O)(=O)c2ccccn2)CC1 [Compound 18, 1-(2,3-dihydrobenzo[b][1,4]dioxin-6-ylsulfonyl)-4-(pyridin-2-ylsulfonyl)piperazine] | 103 ± 6.6% | 542 nM | – | – |
| O=S(=O)(c1ccc2c(c1)OCCO2)N1CCN(S(=O)(=O)c2c(F)ccc(O)c2F)CC1 [Compound 13, 3-(4-(2,3-dihydrobenzo[b][1,4]dioxin-6-ylsulfonyl)piperazin-1-ylsulfonyl)-2,4-difluorophenol] | 95.3 ± 8.4% | – | 52 ± 14 nM | – |
| Cc1cc2c(s1)c1cnn(Cc3cccc(F)c3F)c(=O)c1n2C [Compound 114, 2,4-Methyl-6-[(2,3-difluorophenyl)methyl]-4H-thieno[3,2-b]pyrrole[3,2-d]pyridazinone] | 72.8 ± 7.8% | 215 ± 60 nM | – | – |
| COc1cccc(Cn2ncc3c4sc([S+](C)[O-])cc4n(C)c3c2=O)c1 (stereo not shown) [Compound 148] | 89% | 92 nM | – | – |
| CN1CCOc2ccc(S(=O)(=O)N3CCN(S(=O)(=O)c4c(F)cccc4F)CC3)cc21 [Compound 25, 6-(4-(2,6-difluorophenylsulfonyl)piperazin-1-ylsulfonyl)-4-methyl-3,4-dihydro-2H-benzo[b][1,4]oxazine] | – | 2710 nM | – | 93.5 ± 5.9% |

From US8937067B2, “Activators of human pyruvate kinase” (The United States of America, as represented by the …, priority 2008, dated 2015)
